The values below come from patent publication US20250326771A1, “PIPERAZINE DERIVATIVES USEFUL IN HIV THERAPY” (VIIV HEALTHCARE COMPANY, priority 2022, published 2025).

One assay addresses cIAP2-BIR2 (Homo sapiens (Human), UniProt Q13489). Kind of assay: BIR binding assay (FRET competition), cIAP2 BIR2. The method, boiled down:
(§1)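 His-tagged domains (50 nM cIAP1-BIR3, 325 nM cIAP2-BIR2, 325 nM cIAP1-BIR2, 100 nM XIAP-BIR3) compete with compounds for a 200 nM AlexaFluor647-labelled SMAC/DIABLO peptide in HEPES buffer, pH 7.4, for 60 min. Then 2 nM Eu-W1024 is added for 30 min. The 615/665 nm ratio is fit by four-parameter fit to give IC50.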

For another assay, the target named is XIAP-BIR2 (Homo sapiens (Human), UniProt P98170). The experiment in a line: BIR binding assay (FRET competition), XIAP BIR2. The method, boiled down: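 Compounds in a 15-point, 3-fold series competed with an AlexaFluor647 SMAC peptide (AVPIAQKSE, 200 nM) for 200 nM His-tagged XIAP-BIR2 over 60 min in pH 7.4 HEPES/CHAPS/DTT buffer. Eu-W1024 (2 nM) was then added for 30 min. IC50 and pIC50 were derived from the 615 nm/665 nm emission ratio by variable-slope fit.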
XIAP-BIR2, sequence (P98170 124-240): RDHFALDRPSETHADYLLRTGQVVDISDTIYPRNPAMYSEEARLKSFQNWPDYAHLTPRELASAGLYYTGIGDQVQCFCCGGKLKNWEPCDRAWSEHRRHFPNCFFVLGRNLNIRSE

Assay [1] relates to Jurkat HIV-luciferase clones. Kind of assay: Jurkat latency reversal assay. It is filed as cell-based. The conditions noted are these: Homo sapiens, 48 h; Jurkat latency reversal assay potency; read-out: Jurkat pEC50 (converted). The method, boiled down: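 Pooled Jurkat clones C16, 115 and N6, each carrying one or two integrated HIV-luciferase proviruses and kept in 500 nM EFV, were exposed to 3-fold, 14-point compound titrations in duplicate (10 μM top, 0.5% DMSO) for 48 h at 37° C. Luciferase luminescence was fitted by four-parameter logistic regression for EC50 and maximal percent activation versus vehicle.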

The target of another assay is cIAP1-BIR2 (Homo sapiens (Human), UniProt Q13490). Kind of assay: BIR binding assay (FRET competition), cIAP1 BIR2. The gist of the method:
as §1

The next assay has as its target cIAP1-BIR3 (Homo sapiens (Human), UniProt Q13490). Kind of assay: BIR binding assay (FRET competition), cIAP1 BIR3. The conditions noted are these: for cIAP1 BIR3 vs BIR2 separation window: fold separation (FS) for cIAP1. The gist of the method:
as §1

The target in the next assay is XIAP-BIR3 (Homo sapiens (Human), UniProt P98170). The experiment in a line: BIR binding assay (FRET competition), XIAP BIR3. The conditions noted are these: for XIAP BIR3 vs BIR2 separation window: fold separation (FS) for XIAP. The method, boiled down:
as §1

For the next assay, the target named is cIAP2-BIR3 (Homo sapiens (Human), UniProt Q13489). Kind of assay: BIR binding assay (FRET competition), cIAP2 BIR3. The conditions noted are these: for cIAP2 BIR3 vs BIR2 separation window: fold separation (FS) for cIAP2.
cIAP2-BIR3, sequence (Q13489 238-349): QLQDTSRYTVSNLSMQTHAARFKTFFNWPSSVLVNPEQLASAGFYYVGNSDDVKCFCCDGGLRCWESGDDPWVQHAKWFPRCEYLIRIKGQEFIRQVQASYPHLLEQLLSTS
The mark [2] stands for this setting: FRET competition binding, read-out: XIAP BIR2 (pIC50) (converted).

The structures appear in SMILES notation. Like-named read-outs stand apart in the source and are kept apart here.

cIAP1-BIR2, sequence (Q13490 173-257): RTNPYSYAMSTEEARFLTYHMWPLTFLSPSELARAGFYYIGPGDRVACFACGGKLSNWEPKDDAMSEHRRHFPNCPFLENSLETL
cIAP2-BIR2, sequence (Q13489 158-242): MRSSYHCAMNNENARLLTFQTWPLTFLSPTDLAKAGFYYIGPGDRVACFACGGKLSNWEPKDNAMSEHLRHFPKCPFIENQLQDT
cIAP1-BIR3, sequence (Q13490 253-363): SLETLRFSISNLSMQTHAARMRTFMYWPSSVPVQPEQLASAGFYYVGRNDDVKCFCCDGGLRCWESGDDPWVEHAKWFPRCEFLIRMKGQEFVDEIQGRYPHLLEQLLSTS
XIAP-BIR3, sequence (P98170 241-356): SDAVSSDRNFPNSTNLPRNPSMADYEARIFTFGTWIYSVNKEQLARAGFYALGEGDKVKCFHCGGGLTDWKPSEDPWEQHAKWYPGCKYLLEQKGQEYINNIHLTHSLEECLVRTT

Consider `C[C@@H]1CN(CC(=O)N2CC(C)(C)c3[nH]c(=O)c(Cc4ccc(F)cc4)cc32)[C@@H](CN2CCO[C@H](C(=O)NCCOCCOCCOCCNC(=O)[C@@H]3CN(C[C@H]4CN[C@H](C)CN4CC(=O)N4CC(C)(C)c5[nH]c(=O)c(Cc6ccc(F)cc6)cc54)CCO3)C2)CN1` [Example 121, (2S,2'S)-N,N′-(((oxybis(ethane-2,1-diyl))bis(oxy))bis(ethane-2,1-diyl))bis(4-(((2R,5R)-1-(2-(6-(4-fluorobenzyl)-3,3-dimethyl-5-oxo-2,3,4,5-tetrahydro-1H-pyrrolo[3,2-b]pyridin-1-yl)-2-oxoethyl)-5-methylpiperazin-2-yl)methyl)morpholine-2-carboxamide)], for which the IC50 was 1000 to 3160 nM on cIAP2-BIR2; 10000 to 51300 nM on XIAP-BIR2 (setting [2]); 1000 to 3160 nM at cIAP1-BIR2; 7.94 to 15.8 nM on cIAP1-BIR3; 7.94 to 15.8 nM on XIAP-BIR3; 7.94 to 15.8 nM on cIAP2-BIR3. The EC50 in assay [1] was 63.1 to 316 nM. The “cIAP1 BIR3 vs BIR2 separation window” value at cIAP1-BIR3 is on record as “+++ (10,000>FS>1,000)”. In addition, at XIAP-BIR3, the “XIAP BIR3 vs BIR2 separation window” value is on record as “++++ (FS>10,000)”. Further, the “cIAP2 BIR3 vs BIR2 separation window” value on cIAP2-BIR3 is reported as “+++ (10,000>FS>1,000)”.

As for `C[C@@H]1CN(CC(=O)N2CC(C)(C)c3[nH]c(=O)c(Cc4ccc(F)cc4)cc32)[C@@H](CN2CCC(CN(C)C(=O)c3ccc(C(=O)N(C)CC4CCN(C[C@H]5CN[C@H](C)CN5CC(=O)N5CC(C)(C)c6[nH]c(=O)c(Cc7ccc(F)cc7)cc65)CC4)cc3)CC2)CN1` [Example 96, N^1,N^4-bis((1-(((2R,5R)-1-(2-(6-(4-fluorobenzyl)-3,3-dimethyl-5-oxo-2,3,4,5-tetrahydro-1H-pyrrolo[3,2-b]pyridin-1-yl)-2-oxoethyl)-5-methylpiperazin-2-yl)methyl)piperidin-4-yl)methyl)-N^1,N^4-dimethylterephthalamide], the IC50 at cIAP2-BIR2 was 1000 to 3160 nM; at XIAP-BIR2 (setting [2]) it was 10000 to 51300 nM; at cIAP1-BIR2, 1000 to 3160 nM; on cIAP1-BIR3, 1.38 to 7.94 nM; at XIAP-BIR3, 7.94 to 15.8 nM; at cIAP2-BIR3 it was 7.94 to 15.8 nM. For the same compound, the EC50 in assay [1] was 63.1 to 316 nM. The “cIAP1 BIR3 vs BIR2 separation window” value on cIAP1-BIR3 is given as “+++ (10,000>FS>1,000)”. For the same compound, at XIAP-BIR3, the “XIAP BIR3 vs BIR2 separation window” value is recorded as “++++ (FS>10,000)”. Further, the “cIAP2 BIR3 vs BIR2 separation window” value on cIAP2-BIR3 is “+++ (10,000>FS>1,000)”.

Turning to `C[C@@H]1CN(CC(=O)N2CC(C)(C)c3[nH]c(=O)c(Cc4ccc(F)cc4)cc32)[C@@H](CN2CCO[C@H](COc3ccc(F)c(OC[C@@H]4CN(C[C@H]5CN[C@H](C)CN5CC(=O)N5CC(C)(C)c6[nH]c(=O)c(Cc7ccc(F)cc7)cc65)CCO4)c3)C2)CN1` [Example 75, 1,1′-(2,2′-((3R,3′R,6R,6′R)-(((2S,2'S)-(((4-fluoro-1,3-phenylene)bis(oxy))bis(methylene))bis(morpholine-2,4-diyl))bis(methylene))bis(3-methylpiperazine-6,1-diyl))bis(acetyl))bis(6-(4-fluorobenzyl)-3,3-dimethyl-1,2,3,4-tetrahydro-5H-pyrrolo[3,2-b]pyridin-5-one)], the IC50 lay in the range of 22.4 to 1000 nM at cIAP2-BIR2; 10000 to 51300 nM at XIAP-BIR2; 22.4 to 1000 nM at cIAP1-BIR2; 1.38 to 7.94 nM at cIAP1-BIR3; 1.38 to 7.94 nM on XIAP-BIR3; 1.38 to 7.94 nM on cIAP2-BIR3. Further, the EC50 in assay [1] was 0.49 to 12.6 nM. Also, the “cIAP1 BIR3 vs BIR2 separation window” value on cIAP1-BIR3 is “+++ (10,000>FS>1,000)”. Also, the “XIAP BIR3 vs BIR2 separation window” value on XIAP-BIR3 was “++++ (FS>10,000)”. Also, the “cIAP2 BIR3 vs BIR2 separation window” value at cIAP2-BIR3 is given as “+++ (10,000>FS>1,000)”.

In the case of `C[C@@H]1CN(CC(=O)N2CC(C)(C)c3[nH]c(=O)c(Cc4ccc(F)cc4)cc32)[C@@H](CN2CCN(C(=O)CCCCCCCCC(=O)N3CCN(C[C@H]4CN[C@H](C)CN4CC(=O)N4CC(C)(C)c5[nH]c(=O)c(Cc6ccc(F)cc6)cc54)[C@H](C)C3)C[C@H]2C)CN1` [Example 3, 1,10-bis((R)-4-(((2R,5R)-1-(2-(6-(4-fluorobenzyl)-3,3-dimethyl-5-oxo-2,3,4,5-tetrahydro-1H-pyrrolo[3,2-b]pyridin-1-yl)-2-oxoethyl)-5-methylpiperazin-2-yl)methyl)-3-methylpiperazin-1-yl)decane-1,10-dione], the IC50 on cIAP2-BIR2 was 1000 to 3160 nM; at XIAP-BIR2 (setting [2]) it was 10000 to 51300 nM; at cIAP1-BIR2, 22.4 to 1000 nM; on cIAP1-BIR3, 7.94 to 15.8 nM; at XIAP-BIR3 it was 31.6 to 501 nM; at cIAP2-BIR3, 15.8 to 31.6 nM. Moreover, the EC50 in assay [1] was 12.6 to 63.1 nM. Further, on cIAP1-BIR3, the “cIAP1 BIR3 vs BIR2 separation window” value is given as “++ (1,000>FS>100)”. In addition, at XIAP-BIR3, the “XIAP BIR3 vs BIR2 separation window” value is given as “+++ (10,000>FS>1,000)”. In addition, the “cIAP2 BIR3 vs BIR2 separation window” value on cIAP2-BIR3 was “++ (1,000>FS>100)”.

Regarding `C[C@@H]1CN(CC(=O)N2CC(C)(C)c3[nH]c(=O)c(Cc4ccc(Cl)cc4C(=O)N(C)C)cc32)[C@@H](CN2CCO[C@H](C(=O)NCc3ccc(CNC(=O)[C@@H]4CN(C[C@H]5CN[C@H](C)CN5CC(=O)N5CC(C)(C)c6[nH]c(=O)c(Cc7ccc(Cl)cc7C(=O)N(C)C)cc65)CCO4)cc3)C2)CN1` [Compound 172, (2S,2′S)-N,N′-(1,4-phenylenebis(methylene)) bis(4-(((2R,5R)-1-(2-(6-(4-chloro-2-(dimethylcarbamoyl)benzyl)-3,3-dimethyl-5-oxo-2,3,4,5-tetrahydro-1H-pyrrolo[3,2-b]pyridin-1-yl)-2-oxoethyl)-5-methylpiperazin-2-yl)methyl)morpholine-2-carboxamide)], the IC50 at cIAP2-BIR2 is 10000 to 51300 nM; on XIAP-BIR2 (FRET competition, read-out: XIAP BIR2 (pIC50) (converted)), 10000 to 51300 nM; at cIAP1-BIR2, 10000 to 51300 nM; on cIAP1-BIR3, 7.94 to 15.8 nM; on XIAP-BIR3 it was 31.6 to 501 nM; on cIAP2-BIR3 it was 7.94 to 15.8 nM. The EC50 in assay [1] is 316 to 3310 nM. The “cIAP1 BIR3 vs BIR2 separation window” value on cIAP1-BIR3 is recorded as “+++ (10,000>FS>1,000)”. The “XIAP BIR3 vs BIR2 separation window” value on XIAP-BIR3 is “++++ (FS>10,000)”. In addition, at cIAP2-BIR3, the “cIAP2 BIR3 vs BIR2 separation window” value is reported as “++++ (FS>10,000)”.

In the case of `C[C@@H]1CN(CC(=O)N2CC(C)(C)c3[nH]c(=O)c(Cc4ccc(F)cc4)cc32)[C@@H](CN2CCO[C@H](C(=O)NCCCN3CCN(CCCNC(=O)[C@@H]4CN(C[C@H]5CN[C@H](C)CN5CC(=O)N5CC(C)(C)c6[nH]c(=O)c(Cc7ccc(F)cc7)cc65)CCO4)CC3)C2)CN1` [Example 123, (2S,2'S)-N,N′-(piperazine-1,4-diylbis(propane-3,1-diyl))bis(4-(((2R,5R)-1-(2-(6-(4-fluorobenzyl)-3,3-dimethyl-5-oxo-2,3,4,5-tetrahydro-1H-pyrrolo[3,2-b]pyridin-1-yl)-2-oxoethyl)-5-methylpiperazin-2-yl)methyl)morpholine-2-carboxamide)], the IC50 at cIAP2-BIR2 is 3160 to 10000 nM; on XIAP-BIR2 (setting [2]) it was 10000 to 51300 nM; on cIAP1-BIR2 it was 3160 to 10000 nM; on cIAP1-BIR3, 7.94 to 15.8 nM; on XIAP-BIR3, 7.94 to 15.8 nM; at cIAP2-BIR3 it was 7.94 to 15.8 nM. Moreover, the EC50 in assay [1] is 316 to 3310 nM. Moreover, at cIAP1-BIR3, the “cIAP1 BIR3 vs BIR2 separation window” value is “+++ (10,000>FS>1,000)”. The “XIAP BIR3 vs BIR2 separation window” value on XIAP-BIR3 is “++++ (FS>10,000)”. In addition, the “cIAP2 BIR3 vs BIR2 separation window” value on cIAP2-BIR3 is reported as “+++ (10,000>FS>1,000)”.
